Experiments:
CCK2 receptor [1] = molecular target: T1, CCK2 receptor (Homo sapiens, UniProt P32239); experiment: CCK2 receptor radioligand binding assay ([125I]-BH-CCK-8S, HEKZFP cell membranes); conditions: competition with [125I]-BH-CCK-8S, membranes of induced HEKZFP cells, 60 min at 21±3° C., Cheng-Prusoff
T1 construct: Membranes were prepared from the HEKZFP cells after induction; endogenous in cells; host or cells: HEKZFP cells (T-REx-293 with tet-inducible ZFP-VP16 specific for the CCK2R gene), doxycycline-induced; membrane preparation
T1 sequence (P32239 1-447): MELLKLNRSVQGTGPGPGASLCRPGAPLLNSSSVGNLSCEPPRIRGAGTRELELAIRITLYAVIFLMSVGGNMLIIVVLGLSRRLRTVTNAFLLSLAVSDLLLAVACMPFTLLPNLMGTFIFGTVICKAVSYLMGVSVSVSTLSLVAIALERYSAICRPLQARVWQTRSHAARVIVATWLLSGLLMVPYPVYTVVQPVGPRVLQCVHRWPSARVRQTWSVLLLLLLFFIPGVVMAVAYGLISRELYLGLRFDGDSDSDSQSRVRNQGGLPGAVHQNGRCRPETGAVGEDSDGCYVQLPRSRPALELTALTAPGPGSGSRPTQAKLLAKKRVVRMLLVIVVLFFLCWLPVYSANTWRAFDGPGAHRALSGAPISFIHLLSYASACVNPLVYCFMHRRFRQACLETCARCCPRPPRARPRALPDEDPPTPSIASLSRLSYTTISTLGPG
Method: Zinc Finger Proteins (ZFP) specific for the CCK2R gene were identified by Sangamo Biosciences. The ZFP domain was fused with the herpes simplex virus VP16 activation domain, and the fusion protein was subsequently cloned into the pcDNA3 mammalian expression vector (Invitrogen, San Diego, Calif.). […] After 2 weeks of selection in culture medium containing […] Zeocin (Invitrogen), sixty drug-resistant stable clones were isolated and analyzed for ZFP expression as well as CCK2R induction upon addition of doxycycline to the culture medium.
HEKZFP cells were grown in DMEM supplemented with L-glutamine (2 mM), penicillin (50 units/mL) and streptomycin (50 μg/mL) and 10% FBS (v/v).
Membranes were prepared from the HEKZFP cells after induction. […] The thawed pellets were homogenized using a Polytron PT-10 (7×1 s). The homogenates were centrifuged for 5 min at 1500 rpm (600×g), and the resulting pellets were discarded. The supernatants were re-centrifuged in order to collect the receptor-membrane pellets (25 min 15,000 rpm; 39,800×g), which were re-suspended in buffer A.
The assay preparation was incubated for 1 h at 21±3° C., and then the assay was terminated by rapid filtration of the preparation under reduced pressure. The loaded filters were washed three times using undiluted PBS (100 μL), and then 100 μL of scintillation fluid was added to the filter plate. Bound radioactivity was determined using a Topcount (Packard BioScience, Meriden, Conn.) with a count time of 1 min. […] To validate the radioligand concentration and incubation time for the assay, saturation and kinetic binding studies were also conducted (see M. F. Morton, The Pharmacological Characterization of Cholecystokinin Receptors in the Human Gastrointestinal Tract. PhD Thesis, University of London, 2000). […] The assay was then terminated according to the procedure outlined above.
The pKi values were determined using the equation of Y.-C.
To circumvent problems associated with computer-assisted data analysis of compounds with low affinity, the data obtained in the current study were weighed according to a method described by Morton. In brief, 100% and 0% specific binding were defined independently using total binding and binding obtained in the presence of a high concentration of the reference antagonist, 2-NAP.

CCK2 receptor [2] = molecular target: T2, CCK2 receptor (Cavia porcellus, UniProt H0VZC5); experiment: Guinea-pig gastric corpeal muscle assay (pentagastrin-induced contraction of isolated muscle strips); conditions: pentagastrin concentration-response curves
T2 construct: strips of muscle were dissected and suspended in isolated tissue organ baths; from tissue; host or cells: guinea-pig gastric corpeal muscle strips
T2 sequence (H0VZC5 1-426): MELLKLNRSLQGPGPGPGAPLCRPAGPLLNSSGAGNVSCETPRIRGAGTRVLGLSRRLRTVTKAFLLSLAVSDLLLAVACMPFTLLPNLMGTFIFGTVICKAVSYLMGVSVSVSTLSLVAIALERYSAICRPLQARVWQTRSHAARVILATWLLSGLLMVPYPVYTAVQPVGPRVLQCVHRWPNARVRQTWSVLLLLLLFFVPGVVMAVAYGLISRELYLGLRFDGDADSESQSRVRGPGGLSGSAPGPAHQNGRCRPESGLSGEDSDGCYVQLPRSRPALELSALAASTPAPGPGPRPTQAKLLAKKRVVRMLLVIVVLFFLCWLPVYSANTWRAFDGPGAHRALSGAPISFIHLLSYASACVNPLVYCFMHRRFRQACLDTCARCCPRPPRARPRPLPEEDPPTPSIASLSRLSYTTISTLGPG
Method: Guinea-Pig Gastric Corpeal Muscle Assay
CCK2 receptor-mediated muscle contraction was measured in an isolated muscle-strip assay of guinea-pig gastric corpeal muscle according to the methods described by Roberts et al. (S. P. Roberts, E. A. Harper, G. F. Watt, V. P. Gerskowitch, R. A. Hull, N. P. Shankley, and J. W. Black, Br. J. Pharmacol., 1996, 118(7): 1779-1789). In brief, strips of muscle were dissected and suspended in isolated tissue organ baths for isotonic muscle contraction recording. The baths, containing Krebs-Henseleit solution, were maintained at 24° C. and gassed continuously with 95% O2 and 5% CO2. CCK1 receptors known to be present in this assay were blocked using a selective concentration of a suitable CCK1 receptor antagonist (e.g. 2-NAP). The effectiveness of the test compounds was assessed by measuring their effect on contractile concentration-response curves obtained using a well-characterized surrogate hormone gastrin (pentagastrin).

C[C@@H](NC(=O)c1ccc(Br)cc1NS(=O)(=O)c1cccc2nccnc12)c1ccc(F)cc1F [Example 2, (R)-4-Bromo-N-[1-(2,4-difluoro-phenyl)-ethyl]-2-(quinoxaline-5-sulfonylamino)-benzamide]
Ki (CCK2 receptor [1]): 20 nM | behaviour in the assay (mode of antagonism) (CCK2 receptor [2]): competitive antagonist | Kb (CCK2 receptor [2]; CCK1 receptors blocked, 24° C., read-out: pKB value (converted)): 1.58 nM

O=C(N[C@@H](c1ccc(F)cc1F)C(F)(F)F)c1ccc(Cl)cc1NS(=O)(=O)c1cccc2nccnc12 [Example 29, (S)-4-Chloro-N-[1-(2,4-difluoro-phenyl)-2,2,2-trifluoroethyl]-2-(quinoxaline-5-sulfonylamino)-benzamide]
Ki (CCK2 receptor [1]): 501 nM

O=C(c1ccc(Cl)cc1NS(=O)(=O)c1cccc2nccnc12)N1CCCCC1 [Example 79, Quinoxaline-5-sulfonic acid [5-chloro-2-(piperidine-1-carbonyl)-phenyl]-amide]
Ki (CCK2 receptor [1]): 251 nM

C[C@@H](NC(=O)c1ccc(Cl)cc1NS(=O)(=O)c1cccc2nccnc12)c1ccc(F)cc1F [Example 3, (R)-4-Chloro-N-[1-(2,4-difluorophenyl)-ethyl]-2-(quinoxaline-5-sulfonylamino)-benzamide]
Ki (CCK2 receptor [1]): 12.6 nM

O=C(c1ccc(Cl)cc1NS(=O)(=O)c1cccc2nccnc12)N1CCOc2ccccc2C1 [Example 22, Quinoxaline-5-sulfonic acid [5-chloro-2-(2,3-dihydro-5H-benzo[f][1,4]oxazepine-4-carbonyl)-phenyl]-amide]
Ki (CCK2 receptor [1]): 158 nM

C[C@H](c1ccccc1)N(C)C(=O)c1ccc(Br)cc1NS(=O)(=O)c1cccc2nccnc12 [Example 33, (R)-4-Bromo-N-methyl-N-(1-phenyl-ethyl)-2-(quinoxaline-5-sulfonylamino)-benzamide]
Ki (CCK2 receptor [1]): 12.6 nM

Source: patent publication US7563895B2, “Quinoxaline compounds” (Janssen Pharmaceutica, N.V., priority 2003, dated 2009)
